Active and inactive are the calls of the source. The rule behind the calls is not given here.

As a reminder, the MIC is the lowest concentration that inhibits growth of the organism.

The subject of experiment [1] is Pseudomonas aeruginosa. Nature of the experiment: Additive antibacterial activity against multidrug-resistant Pseudomonas aeruginosa CCARM 2095 strain assessed as fractional inhibitory concentration index in presence of chloramphenicol by checkerboard assay. It is filed as functional.
Experiment [2] has as its system Pseudomonas aeruginosa. Nature of the experiment: Additive antibacterial activity against multidrug-resistant Pseudomonas aeruginosa CCARM 2095 strain assessed as bacterial growth inhibition by checkerboard assay. In kind it is functional.
Experiment [3] concerns Pseudomonas aeruginosa. Nature of the experiment: Additive antibacterial activity against multidrug-resistant Pseudomonas aeruginosa CCARM 2095 strain assessed as chloramphenicol MIC by checkerboard assay. In kind it is functional.
Experiment [4] concerns Staphylococcus aureus. As to the kind of experiment: Antibacterial activity against multidrug-resistant Staphylococcus aureus CCARM 3089 strain assessed as fractional inhibitory concentration index in presence of ciprofloxacin by checkerboard assay. It is filed as functional.
The test system of experiment [5] is Staphylococcus aureus. As to the kind of experiment: Antibacterial activity against multidrug-resistant Staphylococcus aureus CCARM 3089 strain assessed as ciprofloxacin fractional inhibitory concentration by checkerboard assay. In kind it is functional.
The subject of experiment [6] is Staphylococcus aureus. Nature of the experiment: Additive antibacterial activity against multidrug-resistant Staphylococcus aureus CCARM 3089 strain assessed as fractional inhibitory concentration index in presence of ciprofloxacin by checkerboard assay. It is filed as functional.
For experiment [7], the system named is Pseudomonas aeruginosa. Nature of the experiment: Antibacterial activity against multidrug-resistant Pseudomonas aeruginosa CCARM 2095 strain assessed as bacterial growth inhibition in presence of chloramphenicol by checkerboard assay. It is filed as functional.
In experiment [8] the test system is Staphylococcus aureus. Nature of the experiment: Additive antibacterial activity against methicillin-resistant Staphylococcus aureus CCARM 3089 strain assessed as ciprofloxacin MIC by checkerboard assay. It is filed as functional.
For the next experiment, the system named is Escherichia coli. Nature of the experiment: Antibacterial activity against Escherichia coli assessed as bacterial growth inhibition measured at 18 to 24 hrs in presence of CDFA based microdilution assay. Particulars: time 18-24 hrs. It is filed as functional. On the technique in general: Dilution methods test growth across graded concentrations, often in twofold steps.

Experiment [9] concerns Pseudomonas aeruginosa. Nature of the experiment: Synergistic bactericidal activity against multidrug-resistant Pseudomonas aeruginosa CCARM 2095 at 0.5 times MIC measured after 60 mins in presence of 0.5 times MIC of chloramphenicol by time-kill kinetics assay. It is filed as functional, organism-based.

With `N=C(N)NCCNc1nc(NCCNC(=N)N)nc(N2CC(Cc3ccccc3)N(c3nc(NCCNC(=N)N)nc(NCCNC(=N)N)n3)CC2Cc2ccccc2)n1` (stereo not given), the “fractional inhibitory concentration index (FICI)” value in the experiment on Pseudomonas aeruginosa [1] is given as 0.75; in the experiment on Staphylococcus aureus [4], 1.25. For the same compound, the MIC with Pseudomonas aeruginosa [2] was found to be 16 µg/mL; with Pseudomonas aeruginosa [3], 256 µg/mL. Also, the FIC in the experiment with Staphylococcus aureus [5] is given as 0.25.

In the case of `NCCNc1nc(NCCN)nc(N2CC(Cc3ccccc3)N(c3nc(NCCN)nc(NCCN)n3)CC2Cc2ccccc2)n1` (stereo not given), the “fractional inhibitory concentration index (FICI)” value in the experiment with Staphylococcus aureus [6] was 0.75. Further, the MIC with Pseudomonas aeruginosa [7] worked out at 16 µg/mL; with Staphylococcus aureus [8], 128 µg/mL.

As to `NCCN(CCN)c1nc(NCc2ccccc2)nc(N2CC(Cc3ccccc3)N(c3nc(NCc4ccccc4)nc(N(CCN)CCN)n3)CC2Cc2ccccc2)n1` (stereo not given), in the experiment on Escherichia coli, the MIC is 8 µg/mL. The result in the experiment on Pseudomonas aeruginosa [9] was Active.

The record behind these values is ChEMBL document CHEMBL5331051, “Cationic, amphipathic small molecules based on a triazine-piperazine-triazine scaffold as a new class of antimicrobial agents” (Eur J Med Chem, 2022).
